“And” between values parts separate entries of the source, which are not always exact repeats. Identical values can stand only once.
How the values were obtained:
[1] = tested on: MDA-MB-468; settings: 72 h
Procedure, shortened: (§1)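 Breast cancer cell lines (20 µl suspension) were seeded into 384-well plates holding compound at 5 concentrations in 10-fold steps over a compound-specific 10,000-fold range, then incubated 72 h. Cell death was read first by CellTox Green fluorescence (485/520 nm), then viability by CellTiter-Glo luminescence after 10 min at room temperature. Each plate was normalised to 0.1 % DMSO and a positive kill control. EC50 was fitted from the dose-response curves and censored at the top concentration.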

[2] = tested on: BT-474; settings: 72 h
Procedure, shortened: as §1

[3] = tested on: BT-549; settings: 72 h
Procedure, shortened: as §1

[4] = tested on: MDA-MB-231; settings: 72 h
Procedure, shortened: as §1

[5] = tested on: CAL-85-1; settings: 72 h
Procedure, shortened: as §1

[6] = tested on: MDA-MB-453; settings: 72 h
Procedure, shortened: as §1

[7] = tested on: MDA-MB-436; settings: 72 h
Procedure, shortened: as §1

[8] = tested on: SK-BR-3; settings: 72 h
Procedure, shortened: as §1

[9] = tested on: MCF-10A; settings: 72 h
Procedure, shortened: as §1

[10] = tested on: CAL-51; settings: 72 h
Procedure, shortened: as §1

[11] = tested on: HCC1937; settings: 72 h
Procedure, shortened: as §1

[12] = tested on: MDA-MB-436; experiment: normalised viability (% of control), CellTiter-Blue; higher = more viable cells (100 = DMSO, 0 = benzethonium chloride kill control); settings: 1 nM; incubation time: 72 h
Experimental: (§2)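 DSRT, CellTiter-Blue viability, 72 h incubation. Signal is normalised to DMSO and benzethonium chloride controls. Value is the normalised response at dose 1.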

[13] = tested on: Hs578T; experiment: as above; settings: 1 nM; incubation time: 72 h
Experimental: as §2

[14] = tested on: CAL-120; experiment: normalised viability (% of control), CellTiter-Blue; higher = more viable cells (about 100 = DMSO control); settings: 10 nM; incubation time: 72 h
Procedure, shortened: (§3)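 Each entry is normalised viability at a single listed concentration within a series. It comes from breast cancer cell lines incubated 72 h with compound in 384-well plates, then measured with CellTiter-Blue fluorescence at 560/590 nm. Every plate was normalised between vehicle (100) and a positive kill control (0).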

[15] = tested on: MDA-MB-468; experiment: as above; settings: 10 nM; incubation time: 72 h
Procedure, shortened: as §3

[16] = tested on: HDQ-P1; experiment: as above; settings: 3 nM; incubation time: 72 h
Procedure, shortened: as §3

[17] = tested on: DU-4475; experiment: as above; settings: 3 nM; incubation time: 72 h
Procedure, shortened: as §3

[18] = tested on: HCC1599; experiment: as above; settings: 10 nM; incubation time: 72 h
Procedure, shortened: as §3

[19] = tested on: BT-474; experiment: as above; settings: 10 nM; incubation time: 72 h
Procedure, shortened: as §3

[20] = tested on: BT-549; experiment: as above; settings: 10 nM; incubation time: 72 h
Procedure, shortened: as §3

[21] = tested on: MDA-MB-231; experiment: as above; settings: 10 nM; incubation time: 72 h
Procedure, shortened: as §3

[22] = tested on: CAL-85-1; experiment: as above; settings: 3 nM; incubation time: 72 h
Procedure, shortened: as §3

[23] = tested on: HCC1143; experiment: as above; settings: 10 nM; incubation time: 72 h
Procedure, shortened: as §3

[24] = tested on: MDA-MB-453; experiment: as above; settings: 3 nM; incubation time: 72 h
Procedure, shortened: as §3

[25] = tested on: MDA-MB-436; experiment: as above; settings: 10 nM; incubation time: 72 h
Procedure, shortened: as §3

[26] = tested on: SK-BR-3; experiment: as above; settings: 10 nM; incubation time: 72 h
Procedure, shortened: as §3

[27] = tested on: Hs578T; experiment: as above; settings: 10 nM; incubation time: 72 h
Procedure, shortened: as §3

[28] = tested on: CAL-148; experiment: as above; settings: 3 nM; incubation time: 72 h
Procedure, shortened: as §3

[29] = tested on: MFM-223; experiment: as above; settings: 10 nM; incubation time: 72 h
Procedure, shortened: as §3

[30] = tested on: CAL-51; experiment: as above; settings: 3 nM; incubation time: 72 h
Procedure, shortened: as §3

[31] = tested on: HCC1937; experiment: as above; settings: 10 nM; incubation time: 72 h
Procedure, shortened: as §3

[32] = tested on: HDQ-P1; experiment: as above; settings: 100 nM; incubation time: 72 h
Procedure, shortened: as §3

[33] = tested on: BT-474; experiment: as above; settings: 10000 nM; incubation time: 72 h
Procedure, shortened: as §3

[34] = tested on: MDA-MB-231; experiment: as above; settings: 10000 nM; incubation time: 72 h
Procedure, shortened: as §3

[35] = tested on: MDA-MB-436; experiment: as above; settings: 10000 nM; incubation time: 72 h
Procedure, shortened: as §3

[36] = tested on: CAL-148; experiment: as above; settings: 100 nM; incubation time: 72 h
Procedure, shortened: as §3

[37] = tested on: CAL-120; settings: 72 h
Procedure, shortened: as §1

[38] = tested on: Hs578T; settings: 72 h
Procedure, shortened: as §1

EC50, CellTiter-Glo [1] [nM] | EC50, CellTiter-Glo [2] [nM] | EC50, CellTiter-Glo [3] [nM] | EC50, CellTiter-Glo [4] [nM] | EC50, CellTiter-Glo [6] [nM] | EC50, CellTiter-Glo [7] [nM] | EC50, CellTiter-Glo [8] [nM] | EC50, CellTiter-Glo [11] [nM] | SMILES | EC50, CellTiter-Glo [5] [nM] | EC50, CellTiter-Glo [9] [nM] | EC50, CellTiter-Glo [10] [nM] | normalised viability [12] | normalised viability [13] | normalised viability [14] | normalised viability [15] | normalised viability [16] | normalised viability [17] | normalised viability [18] | normalised viability [19] | normalised viability [20] | normalised viability [21] | normalised viability [22] | normalised viability [23] | normalised viability [24] | normalised viability [25] | normalised viability [26] | normalised viability [27] | normalised viability [28] | normalised viability [29] | normalised viability [30] | normalised viability [31] | normalised viability [32] [%] | normalised viability [33] | normalised viability [34] | normalised viability [35] | normalised viability [36] | EC50, CellTiter-Glo [37] [nM] | EC50, CellTiter-Glo [38] [nM]
1700 | 2390 | 2460 | 2590 | 2920 | 2670 | 2160 | 6180 | CN(C)C[C@@H]1CCn2cc(c3ccccc32)C2=C(C(=O)NC2=O)c2cn(c3ccccc23)CCO1 [Ruboxistaurin] | 3470 | 7230 | 2770 | 101% | 94.8% | 108% | 94.5% | 79.3% | 113% | 109% | 96.7% | 85.2% | 95% | 105% | 135% | 94.7% | 94.1% | 101% | 96.4% | 124% | 97.6% | 98.6% | 44.5% | 83.1 | 3.5% | 27.6% | 29.2% | 111% | – | –
– | – | – | – | > 10000 | – | – | – | Cc1ccc(NC(=O)c2ccc(CN3CCN(C)CC3)cc2)cc1Nc1nccc(-c2cccnc2)n1 [Imatinib] | – | – | 4170 | 90.1% and 106% | 99.3% and 102% | 81.6% and 90.2% | 95.9% and 102% | 132% and 110% | 92.2% and 97.2% | 105% and 120% | 108% and 112% | 87.7% and 100% | 81% and 98.2% | 91.5% and 91.4% | 79% and 81.2% | 129% and 110% | 117% and 111% | 97.5% and 99.9% | 106% and 119% | 80.4% and 92.6% | 95.9% and 112% | 111% and 108% | 89.5% and 92.4% | – | 104% and 96.8% | 107% and 104% | 97.6% and 106% | 85.4% and 91.8% | – | –
– | – | > 10000 | – | – | – | – | – | Nc1ncnc2c1c(COc1cccc(Cl)c1)nn2C1CCOCC1 | – | – | – | – | – | – | – | – | – | – | – | – | – | – | – | – | – | – | – | – | – | – | – | – | – | – | – | – | – | –
– | – | 1350 | 1610 | 1980 | – | – | – | COc1ccccc1S(=O)(=O)Nc1ccc2c(c1)CN(C)C(=O)N2 [PFI-1] | 8460 | 4160 | 6310 | – | – | – | – | – | – | – | – | – | – | – | – | – | – | – | – | – | – | – | – | – | – | – | – | – | 2570 | 1810

Reference: the supplement of paper PMC4862054
